Data published in USRE47493E1, “Substituted bicyclic dihydropyrimidinones and their use as inhibitors of neutrophil elastase activity” (Boehringer Ingelheim International GmbH, priority 2014, dated 2019).

Target: Human neutrophil elastase (Homo sapiens (Human), UniProt P08246)
Assay: Human Neutrophil Elastase Assay
Type: biochemical
Details: human neutrophil elastase, substrate MeOSuc-Ala-Ala-Pro-Val-AMC, pH 7.5; read-out: IC50
Experimental: Human Neutrophil Elastase Assay
Materials: Human neutrophil elastase was purchased from Calbiochem (Cat.No.: 324681) and the elastase substrate MeOSuc-Ala-Ala-Pro-Val-AMC from Bachem (Cat.No.: I-1270). All other materials were of the highest grade commercially available.
The following buffers were used: Compound buffer: 100 mM Tris, 500 mM NaCl, adjusted to pH 7.5; Assay buffer: 100 mM Tris, 500 mM NaCl, adjusted to pH 7.5, containing 0.01% BSA.
Assay conditions: Test compounds were prediluted in DMSO and subsequently in compound buffer (5% DMSO final). 5 μL of these compound dilutions were mixed with 10 μl Neutrophil elastase (9 ng/ml in assay buffer) in a black 384 well OptiPlate (Perkin Elmer, Cat No.: 6007270) and incubated for 15 min at room temperature. Subsequently 10 μL substrate solution in assay buffer were added (250 nM final concentration) and the plates were incubated for 60 min at room temperature. After inactivation of the enzyme, fluorescence intensities were measured at 380 nm excitation and 460 nm emission wavelengths.
Each plate contains wells with a high value control (DMSO+enzyme+substrate) and wells with a low value control (DMSO+inactivated enzyme+substrate). IC50 values were estimated using a sigmoidal concentration response curve with variable slope. Means of low values were taken as 0%, means of high values as 100%.

Sequence of Human neutrophil elastase (P08246 30-267): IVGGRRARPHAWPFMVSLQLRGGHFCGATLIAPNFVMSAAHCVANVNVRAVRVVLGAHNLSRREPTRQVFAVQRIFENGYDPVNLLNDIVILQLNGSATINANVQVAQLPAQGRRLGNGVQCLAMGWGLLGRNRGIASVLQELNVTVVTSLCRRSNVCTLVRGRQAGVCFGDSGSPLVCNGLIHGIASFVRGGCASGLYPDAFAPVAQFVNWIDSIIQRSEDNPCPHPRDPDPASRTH

| Compound | IC50 [nM] |
| --- | --- |
| CS(=O)(=O)c1cc(C#N)ccc1C1NC(=O)N(c2cccc(C(F)(F)F)c2)C2=C1C(=O)CCC2 (racemic) [Example 18, 4-(2,5-Dioxo-1-(3-(trifluoromethyl)phenyl)-1,2,3,4,5,6,7,8-octahydroquinazolin-4-yl)-3-(methylsulfonyl)benzonitrile] | 8.5 |
| N#Cc1ccc([C@H]2NC(=O)N(c3cccc(C(F)(F)F)c3)C3=C2C(=O)CCC3)cc1 [Example 1A, (R)-4-(2,5-Dioxo-1-(3-(trifluoromethyl)phenyl)-1,2,3,4,5,6,7,8-octahydroquinazolin-4-yl)benzonitrile] | 9.5 |
| CS(=O)(=O)c1cc(C#N)ccc1[C@@H]1NC(=O)N(c2cccc(C(F)F)c2)C2=C1C(=O)CCC2 [Example 19B, (R)-4-(1-(3-(Difluoromethyl)phenyl)-2,5-dioxo-1,2,3,4,5,6,7,8-octahydroquinazolin-4-yl)-3-(methylsulfonyl)benzonitrile] | 1660 |
| CN1C(=O)N(c2cccc(C(F)(F)F)c2)C2=C(C(=O)CCC2)C1c1ccc(C#N)cc1 (racemic) [Example 20, 4-(1-(3-(Trifluoromethyl)phenyl)-3-methyl-2,5-dioxo-1,2,3,4,5,6,7,8-octahydroquinazolin-4-yl)benzonitrile] | 7.3 |
| COC(=O)CN1C(=O)N(c2cccc(C(F)(F)F)c2)C2=C(C(=O)CCC2)C1c1ccc(C#N)cc1 (racemic) [Example 31, Methyl 2-(4-(4-Cyanophenyl)-2,5-dioxo-1-(3-(trifluoromethyl)phenyl)-1,2,5,6,7,8-hexahydroquinazolin-3(4H)-yl)acetate] | 18.4 |
| CN(C)C(=O)CN1C(=O)N(c2cccc(C(F)(F)F)c2)C2=C(C(=O)CCC2)[C@H]1c1ccc(C#N)cc1 [Example 34A, (R)-2-(4-(4-Cyanophenyl)-2,5-dioxo-1-(3-(trifluoromethyl)phenyl)-1,2,5,6,7,8-hexahydroquinazolin-3(4H)-yl)-N,N-dimethylacetamide] | 1.5 |
| N#Cc1ccc(C2NC(=O)N(c3cccc(C(F)(F)F)c3)C3=C2C(=O)CCC3)cc1 (racemic) [Example 1, 4-(2,5-Dioxo-1-(3-(trifluoromethyl)phenyl)-1,2,3,4,5,6,7,8-octahydroquinazolin-4-yl)-benzonitrile] | 28.5 |
| CS(=O)(=O)c1cc(C#N)ccc1[C@@H]1NC(=O)N(c2cccc(C(F)(F)F)c2)C2=C1C(=O)CCC2 [Example 18B, (R)-4-(2,5-Dioxo-1-(3-(trifluoromethyl)phenyl)-1,2,3,4,5,6,7,8-octahydroquinazolin-4-yl)-3-(methylsulfonyl)benzonitrile] | 2510 |
| CS(=O)(=O)c1cc(C#N)ccc1C1NC(=O)N(c2cccc(C(F)F)c2)C2=C1C(=O)CCC2 (racemic) [Example 19, 4-(1-(3-(Difluoromethyl)phenyl)-2,5-dioxo-1,2,3,4,5,6,7,8-octahydroquinazolin-4-yl)-3-(methylsulfonyl)benzonitrile] | 10.7 |
| N#Cc1ccc([C@@H]2NC(=O)N(c3cccc(C(F)(F)F)c3)C3=C2C(=O)CCC3)cc1 [Example 1B, (S)-4-(2,5-Dioxo-1-(3-(trifluoromethyl)phenyl)-1,2,3,4,5,6,7,8-octahydroquinazolin-4-yl)benzonitrile] | 6560 |
| COC(=O)CN1C(=O)N(c2cccc(C(F)(F)F)c2)C2=C(C(=O)CCC2)[C@H]1c1ccc(C#N)cc1 [Example 31A, (R)-Methyl 2-(4-(4-Cyanophenyl)-2,5-dioxo-1-(3-(trifluoromethyl)phenyl)-1,2,5,6,7,8-hexahydroquinazolin-3(4H)-yl)acetate] | 7.6 |
| COC(=O)CN1C(=O)N(c2cccc(C(F)(F)F)c2)C2=C(C(=O)CCC2)[C@@H]1c1ccc(C#N)cc1 [Example 31B, (S)-Methyl 2-(4-(4-Cyanophenyl)-2,5-dioxo-1-(3-(trifluoromethyl)phenyl)-1,2,5,6,7,8-hexahydroquinazolin-3(4H)-yl)acetate] | 7020 |
| CN1C(=O)N(c2cccc(C(F)(F)F)c2)C2=C(C(=O)CCC2)[C@H]1c1ccc(C#N)cc1 [Example 20A, (R)-4-(1-(3-(Trifluoromethyl)phenyl)-3-methyl-2,5-dioxo-1,2,3,4,5,6,7,8-octahydroquinazolin-4-yl)benzonitrile] | 2.2 |
| CN1C(=O)N(c2cccc(C(F)(F)F)c2)C2=C(C(=O)CCC2)[C@@H]1c1ccc(C#N)cc1 [Example 20B, (S)-4-(1-(3-(Trifluoromethyl)phenyl)-3-methyl-2,5-dioxo-1,2,3,4,5,6,7,8-octahydroquinazolin-4-yl)benzonitrile] | 1340 |
| CN(C)C(=O)CN1C(=O)N(c2cccc(C(F)(F)F)c2)C2=C(C(=O)CCC2)[C@@H]1c1ccc(C#N)cc1 [Example 34B, (S)-2-(4-(4-Cyanophenyl)-2,5-dioxo-1-(3-(trifluoromethyl)phenyl)-1,2,5,6,7,8-hexahydroquinazolin-3(4H)-yl)-N,N-dimethylacetamide] | 570 |

The next lines start with the values.

| IC50 [nM] | Compound |
| --- | --- |
| 1.3 | CN(CCO)C(=O)CN1C(=O)N(c2cccc(C(F)(F)F)c2)C2=C(C(=O)CCC2)C1c1ccc(C#N)cc1S(C)(=O)=O (stereo not shown) [Example 62.3] |
| 8.2 | N#Cc1ccc(C2C3=C(CCCC3=O)N(c3cccc(C(F)(F)F)c3)C(=O)N2CC(=O)NCCN2CCNC2=O)cc1 (stereo not shown) [Example 36.62] |
| 5 | N#Cc1ccc(C2C3=C(CCCC3=O)N(c3cccc(C(F)(F)F)c3)C(=O)N2CC(=O)N2CCN3CCCC3C2)cc1 (stereo not shown) [Example 36.56] |
| 1.4 | CN(Cc1cnn(C)c1)C(=O)CN1C(=O)N(c2cccc(C(F)(F)F)c2)C2=C(C(=O)CCC2)C1c1ccc(C#N)cc1S(C)(=O)=O (stereo not shown) [Example 62.9] |
| 3.1 | CS(=O)(=O)c1cc(C#N)ccc1C1C2=C(CCCC2=O)N(c2cccc(C(F)(F)F)c2)C(=O)N1CC(F)F (stereo not shown) [Example 58.3] |
| < 1 | CS(=O)(=O)c1cc(C#N)ccc1C1C2=C(CCCC2=O)N(c2cccc(C(F)(F)F)c2)C(=O)N1CC(=O)N1CCC(F)C1 (stereo not shown) [Example 62.6] |
| 11.3 | COCCCN1C(=O)N(c2cccc(C(F)(F)F)c2)C2=C(C(=O)CCC2)C1c1ccc(C#N)cc1S(C)(=O)=O (stereo not shown) [Example 58.4] |
| < 1 | CC(C)(O)CCNC(=O)N1C(=O)N(c2cccc(C(F)(F)F)c2)C2=C(C(=O)CCC2)[C@H]1c1ccc(C#N)cc1S(C)(=O)=O [Example 75.19] |
| < 1 | CC(C)(CO)NC(=O)N1C(=O)N(c2cccc(C(F)(F)F)c2)C2=C(C(=O)CCC2)[C@H]1c1ccc(C#N)cc1S(C)(=O)=O [Example 75.13] |
| 1870 | CCS(=O)(=O)c1cc(C#N)ccc1[C@@H]1NC(=O)N(c2cccc(C(F)(F)F)c2)C2=C1C(=O)CCC2 (single isomer, unassigned) [Example 54B] |
| 11.6 | COC1CCN(C(=O)CN2C(=O)N(c3cccc(C(F)(F)F)c3)C3=C(C(=O)CCC3)C2c2ccc(C#N)cc2S(C)(=O)=O)CC1 (stereo not shown) [Example 62.8] |
| < 1 | N#Cc1ccc(C2C3=C(CCCC3=O)N(c3cccc(C(F)(F)F)c3)C(=O)N2C(=O)N[C@H]2CCC[C@@H]2O)cc1 (stereo partly shown) [Example 70.11] |
| 94 | CNC(=O)N1C(=O)N(c2cccc(C(F)(F)F)c2)C2=C(C(=O)CCC2)[C@@H]1c1ccc(C#N)cc1S(C)(=O)=O [Example 47B, (R)-4-(4-Cyano-2-(methylsulfonyl)phenyl)-N-methyl-2,5-dioxo-1-(3-(trifluoromethyl)-phenyl)-1,2,5,6,7,8-hexahydroquinazoline-3(4H)-carboxamide] |
| < 1 | CS(=O)(=O)c1cc(C#N)ccc1C1C2=C(CCCC2=O)N(c2cccc(C(F)(F)F)c2)C(=O)N1CC(=O)N1CCCC1 (stereo not shown) [Example 62.2] |
| < 1 | CS(=O)(=O)c1cc(C#N)ccc1C1C2=C(CCCC2=O)N(c2cccc(C(F)(F)F)c2)C(=O)N1CC(=O)N1CC2CC2C1 (stereo not shown) [Example 62.4] |
| 1.1 | N#Cc1ccc(C2C3=C(CCCC3=O)N(c3cccc(C(F)(F)F)c3)C(=O)N2C(=O)N[C@H]2CCCC[C@@H]2O)cc1 (stereo partly shown) [Example 70.17] |
| 12.7 | CN1C[C@@H](NC(=O)CN2C(=O)N(c3cccc(C(F)(F)F)c3)C3=C(C(=O)CCC3)C2c2ccc(C#N)cc2)CCC1=O (stereo partly shown) [Example 36.61] |
| < 1 | Cn1ncc2c1CN(C(=O)CN1C(=O)N(c3cccc(C(F)(F)F)c3)C3=C(C(=O)CCC3)[C@H]1c1ccc(C#N)cc1)C2 [Example 35A, (R)-4-(3-(2-(1-Methylpyrrolo[3,4-c]pyrazol-5(1H,4H,6H)-yl)-2-oxoethyl)-2,5-dioxo-1-(3-(trifluoromethyl)phenyl)-1,2,3,4,5,6,7,8-octahydroquinazolin-4-yl)benzonitrile] |
| < 1 | CS(=O)(=O)c1cc(C#N)ccc1C1C2=C(CCCC2=O)N(c2cccc(C(F)(F)F)c2)C(=O)N1CC(=O)N1CCC1 (stereo not shown) [Example 62.1] |
| < 1 | COCCN(C)C(=O)CN1C(=O)N(c2cccc(C(F)(F)F)c2)C2=C(C(=O)CCC2)C1c1ccc(C#N)cc1S(C)(=O)=O (stereo not shown) [Example 62.7] |
| 26.8 | Cn1ncc2c1CN(C(=O)CN1C(=O)N(c3cccc(C(F)(F)F)c3)C3=C(C(=O)CCC3)[C@@H]1c1ccc(C#N)cc1)C2 [Example 35B, (S)-4-(3-(2-(1-Methylpyrrolo[3,4-c]pyrazol-5(1H,4H,6H)-yl)-2-oxoethyl)-2,5-dioxo-1-(3-(trifluoromethyl)phenyl)-1,2,3,4,5,6,7,8-octahydroquinazolin-4-yl)benzonitrile] |

Same assay, conditions: read-out: IC50, inhibition of neutrophil elastase

| IC50 [nM] | Compound |
| --- | --- |
| 2510 | CS(=O)(=O)c1cc(C#N)ccc1[C@@H]1NC(=O)N(c2cccc(C(F)(F)F)c2)C2=C1C(=O)CCC2 [Example 18B, (R)-4-(2,5-Dioxo-1-(3-(trifluoromethyl)phenyl)-1,2,3,4,5,6,7,8-octahydroquinazolin-4-yl)-3-(methylsulfonyl)benzonitrile] |
